± gives the expanded uncertainty stated by the source.
Test: molar heat capacity at constant pressure
Details: 101.33 kPa, Liquid, heat bridge-scanning calorimeter

CCCCn1cc[n+](C)c1.F[P-](F)(F)(F)(F)F [1-butyl-3-methylimidazolium hexafluorophosphate]
Details | molar heat capacity at constant pressure [J/K/mol]
340.31 K | 433.38 ± 8.8
340.44 K | 433.38 ± 8.8
340.56 K | 433.38 ± 8.8
340.69 K | 433.38 ± 8.8
340.82 K | 433.66 ± 8.8
340.94 K | 433.66 ± 8.8
341.07 K | 433.66 ± 8.8
341.19 K | 433.66 ± 8.8
341.32 K | 433.95 ± 8.8
341.45 K | 433.95 ± 8.8
341.72 K | 434.23 ± 8.8
341.85 K | 434.23 ± 8.8
341.97 K | 434.23 ± 8.8
342.1 K | 434.23 ± 8.8
342.22 K | 434.23 ± 8.8
342.35 K | 434.51 ± 8.8
342.48 K | 434.51 ± 8.8
342.6 K | 434.51 ± 8.8
342.73 K | 434.51 ± 8.8
343 K | 434.8 ± 8.8
343.13 K | 434.8 ± 8.8
343.25 K | 434.8 ± 8.8
343.38 K | 435.08 ± 8.8
343.51 K | 435.08 ± 8.8
343.63 K | 435.08 ± 8.8
343.76 K | 435.37 ± 8.8
343.88 K | 435.37 ± 8.8
344.01 K | 435.37 ± 8.8
344.13 K | 435.37 ± 8.8
344.26 K | 435.65 ± 8.8
344.53 K | 435.94 ± 8.8
344.66 K | 435.65 ± 8.8
344.78 K | 435.94 ± 8.8
344.91 K | 435.94 ± 8.8
345.03 K | 435.94 ± 8.8
345.16 K | 435.94 ± 8.8
345.29 K | 436.22 ± 8.8
345.42 K | 436.5 ± 8.8
345.55 K | 436.22 ± 8.8
345.82 K | 436.79 ± 8.8
345.95 K | 436.5 ± 8.8
346.07 K | 437.07 ± 8.8
346.2 K | 436.79 ± 8.8
346.32 K | 437.07 ± 8.8
346.45 K | 437.07 ± 8.8
346.57 K | 437.07 ± 8.8
346.7 K | 437.07 ± 8.8
346.82 K | 437.36 ± 8.8
346.95 K | 437.36 ± 8.8
347.08 K | 437.64 ± 8.8
347.35 K | 437.36 ± 8.8
347.47 K | 437.64 ± 8.8
347.6 K | 437.64 ± 8.8
347.72 K | 437.64 ± 8.8
347.85 K | 437.93 ± 8.8
347.97 K | 437.93 ± 8.8
348.1 K | 437.93 ± 8.8
348.22 K | 437.93 ± 8.8
348.35 K | 438.21 ± 8.8
348.63 K | 438.21 ± 8.8
348.76 K | 438.21 ± 8.8
348.88 K | 438.49 ± 8.8
349.01 K | 438.21 ± 8.8
349.13 K | 438.49 ± 8.8
349.26 K | 438.49 ± 8.8
349.38 K | 438.78 ± 8.8
349.51 K | 438.78 ± 8.8
349.63 K | 438.78 ± 8.8
349.76 K | 438.78 ± 8.8
349.88 K | 439.06 ± 8.8
350.19 K | 439.35 ± 8.8
350.32 K | 439.35 ± 8.8
350.44 K | 439.35 ± 8.8
350.57 K | 439.35 ± 8.8
350.69 K | 439.63 ± 8.8
350.82 K | 439.63 ± 8.8
350.94 K | 439.63 ± 8.8
351.07 K | 439.63 ± 8.8
351.21 K | 439.35 ± 8.8
351.49 K | 439.91 ± 8.8
351.61 K | 439.63 ± 8.8
351.74 K | 439.91 ± 8.8
351.86 K | 440.2 ± 8.8
351.99 K | 440.2 ± 8.8
352.11 K | 440.2 ± 8.8
352.24 K | 440.2 ± 8.8
352.36 K | 440.48 ± 8.8
352.49 K | 440.48 ± 8.8
352.61 K | 440.48 ± 8.8
352.74 K | 440.77 ± 8.8
353.01 K | 440.77 ± 8.8
353.13 K | 440.77 ± 8.8
353.26 K | 441.05 ± 8.8
353.38 K | 441.05 ± 8.8
353.51 K | 441.34 ± 8.8
353.64 K | 441.34 ± 8.8

Reference: the NIST ThermoML archive (doi:10.1021/je034102r)
